Assay results published in PMC6862331, “Identification of Isoform-Selective Ligands for the Middle Domain of Heat Shock Protein 90 (Hsp90)” (International Journal of Molecular Sciences, 2019).
Where “and” joins values, the source holds several entries; their conditions need not be identical. Equal values may be shown once. Entries after “also recorded” stand apart in the source; their conditions may differ. Read-outs that look alike come from different tables or passages of the source.

How the values were obtained:
[1] = target: T1, recombinant human Hsp90α MD (Homo sapiens, UniProt P07900); experiment: Intrinsic tryptophan fluorescence spectroscopy (quenching screen and KD titration) with Hsp90α MD; assay type: binding; settings: for binding to Hsp90α MD in initial screening: less than 40% quenching eliminated
T1 construct: made in house; host or cells: Escherichia coli BL21 (DE3)
Source text: (§1) As a result of virtual screening, 24 hit compounds (Figure 1 and Table S3) were selected for further experimental testing against recombinant human Hsp90α MD (residues 294 to 554, Table S4) and human Hsp90β MD (residues 286 to 546, Table S5). As there are tryptophan residues located within the defined binding pocket in both Hsp90α MD and Hsp90β MD, intrinsic tryptophan fluorescence quenching experiment was used to screen the binding of our virtual hits to the proteins. Initial screening experiments were conducted by using 20 μM of Hsp90α/β MD and 1 mM of compounds. Molecules that gave less than 40% fluorescence quenching were eliminated.
(§2) We then focussed on studying the binding of our compounds (5, 8, 9, 10, 12, 17, 22, 24) to both Hsp90α MD and Hsp90β MD. Titration experiments were performed to quantify the binding affinity (dissociation constant, KD) to Hsp90α MD and Hsp90β MD (Table 1 and Figures S3–S10). The KD values of gambogic acid were also measured as control (Table 1 and Figure S11). […] Our KD values for gambogic acid are in agreement with previous studies (~10-fold preference). The selectivity for the β-isoform (over α-isoforms) was progressively less for weaker binders.
(§3) Fluorescence was measured using EnSpire Multimode Plate Reader (PerkinElmer, Melbourne, Australia). Experiments were performed in 20 µM of Hsp90 MD in 20 mM Tris (pH 7.5) and 0.2 M KCl. Different concentration of the virtual hits (InterBioScreen, Bar, Montenegro) or gambogic acid were added to the mixture. Excitation wavelength was 280 nm and intrinsic fluorescence was measured between 300 and 450 nm. The control experiment with Hsp90 MD on its own was conducted. Background fluorescence arising from the compound was subtracted to generate the final spectrum. The total volume per well of the 96-well microplate was 30 µL. Non-linear curve fitting of Equation (1) to the data was conducted using SigmaPlot 14.0 (Systat Software, San Jose, CA, USA). All tests were conducted in triplicate and the errors shown are standard deviation. KD was calculated for each binder using Equation (1), where Δobs is the changes in fluorescence intensity from the titrations, Δmax is the maximum fluorescence intensity change, [LT] represents the titrated ligand concentration, and [PT] indicates the protein concentration.
(§4) (1) Δobs=Δmax×(KD+[LT]+[PT])−(KD+[LT]+[PT])^2−(4×[PT]×[LT])/2×[PT]
(§5) Supplementary Figure S2. Screening of the virtual hits (1 mM) to Hsp90α/β MD (20 μM) by intrinsic protein fluorescence. Percentage fluorescence quenching was calculated with the […]
(§6) % Fluorescence quenching = (Iprotein − Iprotein+compound) […]
(§7) In which Iprotein denotes intrinsic fluorescence intensity of the protein in the absence of any compound, Iprotein+compound denotes intrinsic fluorescence intensity of the protein in the presence of the compound. Experiments were conducted in triplicate. Errors shown are standard […]
(§8) (1 picture or pasted object on this page, not shown here)

[2] = target: T2, recombinant human Hsp90β MD (Homo sapiens, UniProt P08238); experiment: Intrinsic tryptophan fluorescence spectroscopy (quenching screen and KD titration) with Hsp90β MD; assay type: binding; settings: for binding to Hsp90β MD in initial screening: less than 40% quenching eliminated; for selectivity (preference) for the β-isoform over the α-isoform in terms of KD: Hsp90β MD vs Hsp90α MD; for Kd: titration, 20 µM Hsp90 MD, 20 mM Tris pH 7.5, 0.2 M KCl, triplicate, error = SD
T2 construct: made in house; host or cells: Escherichia coli BL21 (DE3)
T2 sequence (P08238 286-546): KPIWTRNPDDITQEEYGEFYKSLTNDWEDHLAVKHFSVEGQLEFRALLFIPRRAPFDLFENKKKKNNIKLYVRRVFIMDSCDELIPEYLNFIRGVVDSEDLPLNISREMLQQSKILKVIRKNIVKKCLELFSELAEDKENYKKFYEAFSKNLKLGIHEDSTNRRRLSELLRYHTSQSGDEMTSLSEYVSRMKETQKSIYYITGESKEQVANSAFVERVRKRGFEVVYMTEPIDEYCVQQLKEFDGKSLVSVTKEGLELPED
Source text: as §1, §2, §3, §4, §5, §6, §7, §8

[3] = target: T2, recombinant human Hsp90β MD; set-up: method as in PMID 27466407; settings: cited from earlier work
[4] = titration, 20 µM Hsp90 MD, 20 mM Tris pH 7.5, 0.2 M KCl, triplicate, error = SD, read-out: KD to Hsp90α MD
[5] = initial screen, 1 mM compound, 20 μM protein

Compound	binding to Hsp90α MD in initial screening ([1]; 1 mM compound, 20 μM protein)	Kd [1, 4]	binding to Hsp90β MD in initial screening ([2]; 1 mM compound, 20 μM protein)	Kd ([2]; read-out: KD to Hsp90β MD)	selectivity (preference) for the β-isoform over the α-isoform in terms of KD [2]	Kd [1]	fluorescence quenching of Hsp90α MD [1, 5]	Kd ([2]; KD to Hsp90β MD)	fluorescence quenching of Hsp90β MD [2, 5]	preference for Hsp90β MD over Hsp90α MD, previous study [3]
COc1cc(C2NC(C(=O)O)Cc3c2[nH]c2ccc(OCc4ccccc4)cc32)cc(OC)c1OC (centres unmarked) [Compound 24, 6-(benzyloxy)-1-(3,4,5-trimethoxyphenyl)-2,3,4,9-tetrahydro-1H-pyrido[3,4-b]indole-3-carboxylic acid]	bind to both Hsp90α MD and Hsp90β MD	661 ± 3 µM	bind to both Hsp90α MD and Hsp90β MD	> 100 µM and 265 µM	bind stronger to Hsp90β MD than to Hsp90α MD	–	–	–	–	–
O=C(CC1=C(O)C(=O)c2ccccc2C1=O)c1ccccc1 [Compound 12, 2-hydroxy-3-(2-oxo-2-phenylethyl)naphthalene-1,4-dione]	bind to both Hsp90α MD and Hsp90β MD	92 ± 0.8 µM	bind to both Hsp90α MD and Hsp90β MD	< 20 µM	bind stronger to Hsp90β MD than to Hsp90α MD; also recorded: seven-fold	–	–	–	–	–
CN[C@H]1CCc2cc(OC)c(OC)c(OC)c2-c2ccc(NCc3cccnc3)c(=O)cc21 [Compound 10, (S)-1,2,3-trimethoxy-7-(methylamino)-10-((pyridin-3-ylmethyl)amino)-6,7-dihydrobenzo[a]heptalen-9(5H)-one]	–	–	–	–	bind stronger to Hsp90β MD than to Hsp90α MD	> 500 µM	~ 20%	> 100 µM and 164 µM	~ 90%	–
COc1cc(C(=O)NC(Cc2ccccc2)C(=O)O)cc(OC)c1OC (centres unmarked) [Compound 22, (3,4,5-trimethoxybenzoyl)phenylalanine]	bind to both Hsp90α MD and Hsp90β MD	459 ± 7 µM	bind to both Hsp90α MD and Hsp90β MD	> 500 µM	slight preference for Hsp90α MD	–	–	–	–	–
CC(=O)N[C@H]1[C@H](Oc2ccc3c(=O)c(-c4ccc5c(c4)OCCCO5)c(C)oc3c2)O[C@H](CO)[C@@H](O)[C@@H]1O [Compound 17, N-((2S,3R,4R,5S,6R)-2-((3-(3,4-dihydro-2H-benzo[b][1,4]dioxepin-7-yl)-2-methyl-4-oxo-4H-chromen-7-yl)oxy)-4,5-dihydroxy-6-(hydroxymethyl)tetrahydro-2H-pyran-3-yl)acetamide]	bind to both Hsp90α MD and Hsp90β MD	506 ± 4 µM	bind to both Hsp90α MD and Hsp90β MD	> 100 µM and 285 µM	bind stronger to Hsp90β MD than to Hsp90α MD	–	–	–	–	–
CC(C)=CCC[C@]1(C)C=Cc2c(O)c3c(c(CC=C(C)C)c2O1)O[C@]12C(=C[C@@H]4C[C@H]1C(C)(C)O[C@@]2(C/C=C(/C)C(=O)O)C4=O)C3=O [Gambogic acid, reference compound]	–	195 ± 5 µM	–	33 ± 2 µM	–	–	–	–	–	~ 7 fold

The next lines start with results.

binding to Hsp90α MD in initial screening ([1]; 1 mM compound, 20 μM protein)	Kd [1, 4]	binding to Hsp90β MD in initial screening ([2]; 1 mM compound, 20 μM protein)	Kd ([2]; read-out: KD to Hsp90β MD)	Compound	selectivity (preference) for the β-isoform over the α-isoform in terms of KD [2]	Kd [1]	fluorescence quenching of Hsp90α MD [1, 5]	Kd ([2]; KD to Hsp90β MD)	fluorescence quenching of Hsp90β MD [2, 5]	preference for Hsp90β MD over Hsp90α MD, previous study [3]
bind to both Hsp90α MD and Hsp90β MD	470 ± 2 µM	bind to both Hsp90α MD and Hsp90β MD	136 ± 1 µM	CCC[C@@H](NC(=O)C(C)Oc1ccc2c(-c3ccccc3)cc(=O)oc2c1)C(=O)O (stereo partly drawn) [Compound 5, (2R)-2-(2-((2-oxo-4-phenyl-2H-chromen-7-yl)oxy)propanamido)pentanoic acid]	–	–	–	–	–	–
bind to both Hsp90α MD and Hsp90β MD	299 ± 3 µM	bind to both Hsp90α MD and Hsp90β MD	57 ± 1 µM	CCC(C)[C@@H](NC(=O)C(C)Oc1ccc2c(-c3ccccc3)cc(=O)oc2c1)C(=O)O (stereo partly drawn) [Compound 9, (2R)-3-methyl-2-(2-((2-oxo-4-phenyl-2H-chromen-7-yl)oxy)propanamido)pentanoic acid]	–	–	–	–	–	–
bind to both Hsp90α MD and Hsp90β MD	284 ± 4 µM	bind to both Hsp90α MD and Hsp90β MD	> 500 µM	O=C(CNC(=O)OCc1ccccc1)Oc1cc(O)c2c(=O)cc(-c3ccccc3)oc2c1 [Compound 8, 5-hydroxy-4-oxo-2-phenyl-4H-chromen-7-yl ((benzyloxy)carbonyl)glycinate]	slight preference for Hsp90α MD	–	–	–	–	–
